In patent publication US9718788B2, “Heteroaryl compounds useful as inhibitors of E1 activating enzymes” (MILLENNIUM PHARMACEUTICALS, INC., priority 2006, dated 2017):

Molecular target: T1, recombinant human NAE enzyme (Homo sapiens, UniProt Q8TBC4)
T1 construct: His (N); made in house; host or cells: Sf9 insect cells (baculovirus, Bac-to-Bac)
T1 sequence (Q8TBC4 1-463): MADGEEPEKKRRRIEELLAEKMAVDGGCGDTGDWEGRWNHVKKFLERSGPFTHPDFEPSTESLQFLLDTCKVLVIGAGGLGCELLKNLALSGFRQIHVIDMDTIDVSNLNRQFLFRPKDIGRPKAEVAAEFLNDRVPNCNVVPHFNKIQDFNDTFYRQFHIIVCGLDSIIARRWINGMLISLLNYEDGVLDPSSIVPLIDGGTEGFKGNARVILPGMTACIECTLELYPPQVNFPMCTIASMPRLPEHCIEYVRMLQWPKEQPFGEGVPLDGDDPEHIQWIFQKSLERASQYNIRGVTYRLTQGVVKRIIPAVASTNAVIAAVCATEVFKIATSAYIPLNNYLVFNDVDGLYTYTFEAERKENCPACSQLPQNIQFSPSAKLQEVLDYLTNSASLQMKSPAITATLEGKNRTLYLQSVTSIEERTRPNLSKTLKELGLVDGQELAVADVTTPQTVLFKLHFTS
T1 sequence (Q13564 1-534 partner): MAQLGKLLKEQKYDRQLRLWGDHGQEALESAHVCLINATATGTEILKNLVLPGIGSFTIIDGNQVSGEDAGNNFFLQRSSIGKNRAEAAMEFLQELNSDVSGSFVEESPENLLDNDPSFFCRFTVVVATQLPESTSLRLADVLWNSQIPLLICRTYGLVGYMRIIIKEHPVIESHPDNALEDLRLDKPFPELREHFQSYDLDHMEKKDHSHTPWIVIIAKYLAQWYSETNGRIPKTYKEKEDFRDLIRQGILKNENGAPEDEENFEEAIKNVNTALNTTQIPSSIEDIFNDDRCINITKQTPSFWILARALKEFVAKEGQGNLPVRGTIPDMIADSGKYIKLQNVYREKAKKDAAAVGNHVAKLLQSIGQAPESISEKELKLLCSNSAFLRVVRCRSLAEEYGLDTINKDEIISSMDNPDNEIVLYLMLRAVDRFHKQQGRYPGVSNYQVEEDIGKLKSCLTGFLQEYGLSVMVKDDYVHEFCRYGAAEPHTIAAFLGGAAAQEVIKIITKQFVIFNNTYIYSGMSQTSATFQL
Assay: Nedd8-Activating Enzyme (NAE) HTRF Assay
Format: biochemical
Conditions: 20 μM ATP
Description: Following manufacturer instructions, baculoviruses were generated with the Bac-to-Bac Expression System (Invitrogen) for the following proteins: untagged NAEα (APPBP1; NP_003896.1), N-terminally His-tagged NAEJ (UBE1C; NP_003959.3), untagged SAEα (SAE1; NP_005491.1), N-terminally His-tagged SAE3 (UBA2; NP_005490.1), N-terminally His-tagged murine UAE (UBE1X; NP_033483). NAEα/His-NAEβ and SAEα/His-SAEβ complexes were generated by co-infection of Sf9 cells, which were harvested after 48 hours. His-mUAE was generated by single infection of Sf9 cells and harvested after 72 hours. Expressed proteins were purified by affinity chromatography (Ni-NTA agarose, Qiagen) using standard buffers. Nedd8-Activating Enzyme (NAE) HTRF Assay. The NAE enzymatic reaction totaled 50 μL and contained 50 mM HEPES (pH 7.5), 0.05% BSA, 5 mM MgCl2, 20 μM ATP, 250 μM GSH, 0.01 μM Ubc12-GST, 0.075 μM Nedd8-Flag and 0.20 nM recombinant human NAE enzyme. The enzymatic reaction mixture, with and without compound inhibitor, was incubated at room temperature 24° C. for 105 minutes in a 384-well plate before termination with 25 μL of Stop/Detection buffer (0.1M HEPES pH 7.5, 0.05% Tween20, 20 mM EDTA, 410 mM KF, 0.53 nM Europium-Cryptate labeled monoclonal anti-FLAG M2 antibody (CisBio International) and 8.125 μg/mL PHYCOLINK goat anti-GST allophycocyanin (XL-APC) antibody (Prozyme)). After incubation for 1 hour at 24° C., quantification of the FRET was performed on the Analyst™ HT 96.384 (Molecular Devices).

| IC50 (bound given in nM) [nM] | IC50 (bound given in μM) [nM] | SMILES |
| --- | --- | --- |
| ≤ 500 | – | CN(c1ncnc2[nH]c(-c3cccc4ccccc34)nc12)[C@@H]1C[C@@H](COS(N)(=O)=O)[C@@H](O)C1 [Compound I-46, ((1S,2S,4R)-2-hydroxy-4-{methyl[8-(1-naphthyl)-9H-purin-6-yl]amino}-cyclopentyl)methyl sulfamate] |
| ≤ 500 | – | CO[C@H]1Cc2ccccc2[C@H]1Nc1cc(N[C@@H]2C[C@@H](COS(N)(=O)=O)[C@@H](O)C2)ncn1 [Compound I-47, {(1S,2S,4R)-2-hydroxy-4-[(6-{[(1R,2S)-2-methoxy-2,3-dihydro-1H-inden-1-yl]-amino}pyrimidin-4-yl)amino]cyclopentyl}methyl sulfamate] |
| > 500 | < 10000 | NS(=O)(=O)OC[C@@H]1C[C@@H](Nc2ncnc3[nH]c(-c4ccccc4-c4ccccc4)nc23)C[C@@H]1O [Compound I-48, {(1S,2S,4R)-4-[(8-biphenyl-2-yl-9H-purin-6-yl)amino]-2-hydroxycyclopentyl}-methyl sulfamate] |
| ≤ 500 | – | NS(=O)(=O)OC[C@@H]1C[C@@H](Nc2ncnc3[nH]c(-c4cccc5ccccc45)nc23)C[C@@H]1O [Compound I-49, ((1S,2S,4R)-2-hydroxy-4-{[8-(1-naphthyl)-9H-purin-6-yl]amino}cyclopentyl)-methyl sulfamate] |
| > 500 | < 10000 | CN(C)C[C@H]1Cc2ccccc2[C@H]1Nc1cc(O[C@@H]2C[C@@H](COS(N)(=O)=O)[C@@H](O)C2)ncn1 [Compound I-53, ((1S,2S,4R)-4-{[6-({(1S,2R)-2-[(dimethylamino)methyl]-2,3-dihydro-1H-inden-1-yl}amino)pyrimidin-4-yl]oxy}-2-hydroxycyclopentyl)methyl sulfamate] |
| > 500 | < 10000 | NS(=O)(=O)OC[C@@H]1C[C@@H](Nc2cc(N[C@H]3CCc4ccccc43)nc(=O)[nH]2)C[C@@H]1O [Compound I-54, [(1S,2S,4R)-4-({6-[(1S)-2,3-dihydro-1H-inden-1-ylamino]-2-oxo-2,3-dihydropyrimidin-4-yl}amino)-2-hydroxycyclopentyl]methyl sulfamate] |
| ≤ 500 | – | CO[C@H]1Cc2ccccc2[C@H]1Nc1ncnc(N[C@@H]2C[C@H](COS(N)(=O)=O)[C@@H](O)[C@H]2O)n1 [Compound I-55, {(1R,2R,3S,4R)-2,3-dihydroxy-4-[(4-{[(1R,2S)-2-methoxy-2,3-dihydro-1H-inden-1-yl]amino}-1,3,5-triazin-2-yl)amino]cyclopentyl}methyl sulfamate] |
| ≤ 500 | – | NS(=O)(=O)OC[C@@H]1C[C@@H](Nc2c(Cl)cnc3[nH]c(-c4cccc5ccccc45)nc23)C[C@@H]1O [Compound I-56, ((1S,2S,4R)-4-{[6-chloro-2-(1-naphthyl)-3H-imidazo[4,5-b]pyridin-7-yl]amino}-2-hydroxycyclopentyl)methyl sulfamate] |
| – | > 10000 | NS(=O)(=O)OC[C@H]1C[C@@H](O)[C@H](Nc2cc(N[C@H]3CCc4ccccc43)ncn2)C1 [Compound I-58, [(1R,3R,4R)-3-({6-[(1S)-2,3-dihydro-1H-inden-1-ylamino]pyrimidin-4-yl}-amino)-4-hydroxycyclopentyl]methyl sulfamate] |
| ≤ 500 | – | NS(=O)(=O)OC[C@@H]1C[C@@H](Nc2ncnc3[nH]c(-c4cccc(Cl)c4)nc23)C[C@@H]1O [Compound I-60, ((1S,2S,4R)-4-{[8-(3-chlorophenyl)-9H-purin-6-yl]amino}-2-hydroxycyclopentyl)methyl sulfamate] |
| – | > 10000 | NS(=O)(=O)OC[C@@H]1C[C@@H](Oc2cc(N3CCc4ccccc4C3)ncn2)C[C@@H]1O [Compound I-61, ((1S,2S,4R)-4-{[6-(3,4-dihydroisoquinolin-2(1H)-yl)pyrimidin-4-yl]oxy}-2-hydroxycyclopentyl)methyl sulfamate] |
| ≤ 500 | – | NS(=O)(=O)OC[C@@H]1C[C@@H](Nc2ncnc3[nH]c(-c4ccccc4OC(F)(F)F)nc23)C[C@@H]1O [Compound I-62, [(1S,2S,4R)-2-hydroxy-4-({8-[2-(trifluoromethoxy)phenyl]-9H-purin-6-yl}-amino)cyclopentyl]methyl sulfamate] |
| ≤ 500 | – | NS(=O)(=O)OC[C@@H]1C[C@@H](Oc2ncnc3[nH]c(-c4ccccc4)nc23)C[C@@H]1O [Compound I-63, {(1S,2S,4R)-2-hydroxy-4-[(8-phenyl-9H-purin-6-yl)oxy]cyclopentyl}methyl sulfamate] |
| ≤ 500 | – | CN(C)c1ccc(-c2nc3c(N[C@@H]4C[C@@H](COS(N)(=O)=O)[C@@H](O)C4)ncnc3[nH]2)c2ccccc12 [Compound I-64, [(1S,2S,4R)-4-({8-[4-(dimethylamino)-1-naphthyl]-9H-purin-6-yl}amino)-2-hydroxycyclopentyl]methyl sulfamate] |
| ≤ 500 | – | CC1(C)C[C@H](Nc2cc(N[C@@H]3C[C@@H](COS(N)(=O)=O)[C@@H](O)C3)ncn2)c2ccccc21 [Compound I-65, {(1S,2S,4R)-4-[(6-{[(1S)-3,3-dimethyl-2,3-dihydro-1H-inden-1-yl]amino}-pyrimidin-4-yl)amino]-2-hydroxycyclopentyl}methyl sulfamate] |
| > 500 | < 10000 | CN(C)C(=O)[C@H]1Cc2ccccc2[C@H]1Nc1cc(O[C@@H]2C[C@@H](COS(N)(=O)=O)[C@@H](O)C2)ncn1 [Compound I-66, ((1S,2S,4R)-4-{[6-({(1S,2S)-2-[(dimethylamino)carbonyl]-2,3-dihydro-1H-inden-1-yl}amino)pyrimidin-4-yl]oxy}-2-hydroxycyclopentyl)methyl sulfamate] |
| ≤ 500 | – | COc1cccc(-c2nc3c(N[C@@H]4C[C@@H](COS(N)(=O)=O)[C@@H](O)C4)ncnc3[nH]2)c1OC [Compound I-67, ((1S,2S,4R)-4-{[8-(2,3-dimethoxyphenyl)-9H-purin-6-yl]amino}-2-hydroxycyclopentyl)methyl sulfamate] |
| ≤ 500 | – | NS(=O)(=O)OC[C@@H]1C[C@@H](Nc2ncnc3[nH]c(-c4ccccc4OCc4ccccc4)nc23)C[C@@H]1O [Compound I-68, [(1S,2S,4R)-4-({8-[2-(benzyloxy)phenyl]-9H-purin-6-yl}amino)-2-hydroxycyclopentyl]methyl sulfamate] |
| ≤ 500 | – | NS(=O)(=O)OC[C@@H]1C[C@@H](Nc2ncnc3[nH]c(-c4ccccc4)nc23)C[C@@H]1O [Compound I-69, {(1S,2S,4R)-2-hydroxy-4-[(8-phenyl-9H-purin-6-yl)amino]cyclopentyl}methyl sulfamate] |
| ≤ 500 | – | CC1(C)C[C@H](Nc2ncnc(N[C@@H]3C[C@@H](COS(N)(=O)=O)[C@@H](O)C3)c2F)c2ccccc21 [Compound I-71, {(1S,2S,4R)-4-[(6-{[(1S)-3,3-dimethyl-2,3-dihydro-1H-inden-1-yl]amino}-5-fluoropyrimidin-4-yl)amino]-2-hydroxycyclopentyl}methyl sulfamate] |
| ≤ 500 | – | NS(=O)(=O)OC[C@@H]1C[C@@H](Oc2ncnc3nc(-c4ccnc5cc(Cl)ccc45)[nH]c23)C[C@@H]1O [Compound I-73, ((1S,2S,4R)-4-{[8-(7-chloroquinolin-4-yl)-7H-purin-6-yl]oxy}-2-hydroxycyclopentyl)methyl sulfamate] |
| ≤ 500 | – | NS(=O)(=O)OC[C@@H]1C[C@@H](Nc2ncnc3[nH]c(-c4cccc5ccccc45)cc23)C[C@@H]1O [Compound I-74, ((1S,2S,4R)-2-hydroxy-4-{[6-(1-naphthyl)-7H-pyrrolo[2,3-d]pyrimidin-4-yl]amino}cyclopentyl)methyl sulfamate] |
